From patent US4962109A, “Insecticidally and acaricidally active pyrimidine esters and intermediates therefor” (Imperial Chemical Industries PLC, priority 1985, dated 1990) come the findings set out here.

Where two headings read alike, the source gives them in different places. A value given as a limit tells only on which side of the number the result lay.

Holding throughout (format): in vivo
Experiment [1] has as its system Musca domestica (houseflies - adults). Nature of the experiment: Knockdown test on houseflies - adults (MD/KD), Cotton wool/sugar. To be noted: 500 ppm, 4 hours, read-out: MD/KD grading of knockdown. Put shortly: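 Adult houseflies exposed to the compound at 500, 250 or 100 ppm in acetone/water with 0.01% wetting agent, on a cotton wool/sugar medium. Knockdown and mortality assessed, graded A (80-100%), B (50-79%) or C (<50%).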

Experiment [2] relates to Diabrotica balteata (rootworm larvae). Nature of the experiment: Residual test on rootworm larvae (DB), Filter paper/maize seed, mortality. Conditions: 48 h, 500 ppm, residual, read-out: DB grading of mortality. Put shortly: (§1)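 Graded read-out: A 80-100%, B 50-79%, C below 50% mortality or knockdown, assessed usually 1-3 days post-treatment. Liquid preparations at 500, 250 or 100 ppm by weight, from acetone solution diluted in water with 0.01% wetting agent, applied to pests and/or their host plant or food medium.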

The subject of experiment [3] is Musca domestica (houseflies - adults). Description: Contact test on houseflies - adults (MD), Cotton wool/sugar, mortality. Conditions: 500 ppm, contact, read-out: MD grading of mortality. The procedure, abridged:
as §1

In experiment [4] the test system is Blattella germanica (cockroach nymphs). Description: Residual test on cockroach nymphs (BG/R), Plastic pot, mortality. To be noted: 72 h, 3 days, read-out: BG/R grading of mortality. The protocol:
The activity of the Product was determined using a variety of insect pests. The Product was used in the form of liquid preparations containing 500, 250 or 100 parts per million (ppm) by weight of the Product. The preparations were made by dissolving the Product in acetone and diluting the solutions with water containing 0.01% by weight of a wetting agent sold under the trade name "LISSAPOL" NX until the liquid preparations contained the required concentration of the Product. "Lissapol" is a Registered Trade Mark.
The test procedure adopted with regard to each pest was basically the same and comprised supporting a number of the pests on a medium which was usually a host plant or a foodstuff on which the pests feed, and treating either or both the pests and the medium with the preparations. The mortality of the pests was then assessed at periods usually varying from one to three days after the treatment.
The results of the tests are given in Table III for each of the Products, at the rate in parts per million given in the second column as a grading of mortality designated as A, B or C wherein A indicates 80-100% mortality or knockdown, B indicates 50-79% mortality or knockdown and C indicates less than 50% mortality or knockdown.
BG/R Blattella germanica

For experiment [5], the system named is Heliothis virescens (tobacco budworm - larvae). Description: Residual test on tobacco budworm larvae (HV), Cotton leaf, mortality. Conditions: 48 h, read-out: HV grading of mortality. Put shortly: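 Product in acetone diluted with water containing 0.01% Lissapol NX, at 500, 250 or 100 ppm; pests and/or host medium (here cotton leaf) treated. Mortality scored one to three days later, graded A (80-100%), B (50-79%), C (<50%).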

Another experiment has as its system Myzus persicae (aphids). Description: Contact test on aphids (MP), Chinese Cabbage leaf, mortality. To be noted: 72 h, 500 ppm, contact, 3 days, read-out: MP grading of mortality. Put shortly: as §1
The test system of experiment [6] is Nephotettix cincticeps (green leaf hopper - nymphs). Description: Contact test on green leaf hopper nymphs (NC), Rice plant, mortality. To be noted: 48 h, 500 ppm, contact, 2 days, read-out: NC grading of mortality. Put shortly: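 Product dissolved in acetone, diluted in water with 0.01% wetting agent to 500, 250 or 100 ppm; nymphs and/or host rice plants treated. Mortality or knockdown assessed 1–3 days later, graded A (80-100%), B (50-79%), C (<50%).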

In experiment [7] the test system is Tetranychus urticae (spider mites - adult). Nature of the experiment: Contact test on spider mites - adult (TUa), French bean leaf, mortality. To be noted: 72 h, 500 ppm, contact, 3 days, read-out: TUa grading of mortality. Put shortly: as §1
In experiment [8] the test system is Spodoptera exigua (lesser army worm - larvae). Nature of the experiment: Residual test on lesser army worm larvae (SP), Cotton leaf, mortality. Conditions: 48 h, 500 ppm, residual, read-out: SP grading of mortality. Put shortly: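 Product dissolved in acetone and diluted in water with 0.01% wetting agent to 500, 250 or 100 ppm; larvae and/or cotton leaf host treated. Mortality or knockdown scored one to three days later and graded A (80-100%), B (50-79%) or C (<50%).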

Experiment [9] relates to Tetranychus urticae (spider mites - ova). Description: Contact test on spider mites - ova (TUe), French bean leaf, mortality. Conditions: 144 h, 500 ppm, contact, 6 days, read-out: TUe grading of mortality. Put shortly:
as §1

Experiment [10] relates to Blattella germanica (cockroach nymphs). Nature of the experiment: Contact test on cockroach nymphs (BG/C), Plastic pot, mortality. To be noted: 48 h, 500 ppm, contact, 2 days, read-out: BG/C grading of mortality. The procedure, abridged: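 Cockroach nymphs and/or their medium were treated with aqueous preparations at 500, 250 or 100 ppm (acetone solution diluted in water with 0.01% Lissapol NX wetting agent). Mortality or knockdown was assessed typically 1–3 days later and graded A (80–100%), B (50–79%) or C (<50%).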

With `COCc1c(F)c(F)c(COC(=O)C(c2cnc(C)nc2)C(C)(C)C)c(F)c1F` (racemic) [Compound 120, 2,3,5,6-tetrafluoro-4-(methoxymethyl)-benzyl (RS)-2-(2-methylpyrimidin-5-yl)-3,3-dimethylbutanoate], the pest or weed control at 500 ppm in [1] was in the range of 80 to 100%. Besides, the mortality at 500 ppm was < 50% in experiment [2] (2 days); 80 to 100% in experiment [3] (72 h, 3 days); < 50% in experiment [4]; 80 to 100% in experiment [5]; 80 to 100% with Myzus persicae (aphids); 80 to 100% in experiment [6]. Besides, the mortality at 500 ppm in experiment [7] was 80 to 100%; in [8] (2 days) it was 80 to 100%; in experiment [9], < 50%.
As to `CC(C)(C)SCc1c(F)c(F)c(COC(=O)C(c2cnc(C(C)(C)C)nc2)C(C)(C)C)c(F)c1F` (racemic) [Compound 175, 4-[(1,1-dimethylethyl)thio]methyl-2,3,5,6-tetrafluorobenzyl (RS)-2-[2-(1,1-dimethylethyl)pyrimidin-5-yl]-3,3dimethylbutanoate], the pest or weed control at 500 ppm in experiment [1] is < 50%. For the same molecule, the mortality at 500 ppm in experiment [2] (2 days) is < 50%; in experiment [3] (72 h, 3 days), < 50%; in experiment [5] it was < 50%; in the experiment with Myzus persicae (aphids) it was < 50%; in experiment [6], < 50%; in experiment [7], 80 to 100%. Besides, the mortality at 500 ppm in experiment [10], in experiment [8] (2 days) and in experiment [9] was < 50% throughout.
On to `CCC(C)(C)c1ncc(C(C(=O)OCc2ccc(F)c(Oc3ccccc3)c2)C(C)(C)C)cn1` (racemic) [Compound 68, 4-fluoro-3-phenoxybenzyl (RS)-2-[2-(1,1-dimethylpropyl)pyrimidin-5-yl]-3,3-dimethylbutanoate], for which, in experiment [1], the pest or weed control at 500 ppm is < 50%. Besides, the mortality at 500 ppm in experiment [2] (2 days) is < 50%; in experiment [3] (72 h, 3 days), < 50%; in [5], 80 to 100%; in the experiment with Myzus persicae (aphids) it was 80 to 100%; in experiment [6] it was 80 to 100%; in experiment [7] it was 80 to 100%. For the same molecule, the mortality at 500 ppm is < 50% in [10], 50 to 79% in experiment [8] (2 days) and < 50% in experiment [9].
As for `COCc1c(F)c(F)c(COC(=O)C(c2cnc(C(C)(C)C)nc2)C(C)(C)C)c(OC)c1F` (racemic) [Compound 16, 2,3,5-trifluoro-6-methoxy-4-(methoxymethyl)benzyl (RS)-2-[2-(1,1-dimethylethyl)pyrimidin-5-yl]-3,3-dimethylbutanoate], in experiment [1], the pest or weed control at 500 ppm was in the range of 80 to 100%. The mortality at 500 ppm in experiment [2] (* test duration of 3 days) was < 50%; in experiment [3] (24 h, ** test duration of 1 day) it was 80 to 100%; in [4] it was 50 to 79%; in experiment [5] it was 80 to 100%; in the experiment on Myzus persicae (aphids), 80 to 100%; in experiment [7], < 50%. For the same molecule, the mortality at 500 ppm in [8] (* test duration of 3 days) and in [9] was 80 to 100% in each case.
Consider `CC(C)OCc1c(F)c(F)c(COC(=O)C(c2cnc(C(C)(C)C)nc2)C(C)(C)C)c(F)c1F` (racemic) [Compound 189, 2,3,5,6-tetrafluoro-4-[(1-methyl)ethoxy]methylbenzyl (RS)-2-[2-(1,1-dimethylethyl)-pyrimidin-5-yl]-3,3dimethylbutanoate], for which the pest or weed control at 500 ppm in [1] lay within 50 to 79%. Moreover, the mortality at 500 ppm is < 50% in experiment [2] (2 days); < 50% in experiment [3] (72 h, 3 days); < 50% in experiment [5]; 80 to 100% in the experiment on Myzus persicae (aphids); 80 to 100% in [6]; 80 to 100% in experiment [7]. In addition, the mortality at 500 ppm in experiment [10] was < 50%; in [8] (2 days), 80 to 100%; in [9] it was < 50%.
For the molecule `C[C@@H](OC(=O)[C@@H](c1cnc(C(C)(C)C)nc1)C(C)(C)C)c1cccc(Oc2ccccc2)n1` (racemic) [Compound 11, (RS)-1-(6-phenoxypyrid-2-yl)ethyl (RS)-2-[2-(1,1-dimethylethyl)pyrimidin-5-yl]-3,3-dimethylbutanoate], the pest or weed control at 500 ppm in experiment [1] lay in the range of 80 to 100%. For the same molecule, the mortality at 500 ppm was 80 to 100% in experiment [2] (2 days); 80 to 100% in experiment [3] (72 h, 3 days); 80 to 100% in experiment [5]; 80 to 100% in the experiment with Myzus persicae (aphids); 80 to 100% in experiment [6]; 80 to 100% in experiment [7]. The mortality at 500 ppm is < 50% in [10], 80 to 100% in experiment [8] (2 days) and 80 to 100% in experiment [9].
As to `COCc1c(F)c(F)c(COC(=O)C(c2cnc(C3(C)CC3)nc2)C(C)(C)C)c(F)c1F` (racemic) [Compound 139, 2,3,5,6-tetrafluoro-4-(methoxymethyl)benzyl (RS)-2-[2-(1-methylcyclopropyl)pyrimidin-5-yl]-3,3-dimethylbutanoate], the pest or weed control at 500 ppm in experiment [1] is 80 to 100%. The mortality at 500 ppm in experiment [2] (2 days) is < 50%; in experiment [3] (72 h, 3 days), 80 to 100%; in experiment [5] it was 80 to 100%; in the experiment with Myzus persicae (aphids), 80 to 100%; in [6], 80 to 100%; in experiment [7], 80 to 100%. The mortality at 500 ppm in [10] is 80 to 100%; in experiment [8] (2 days) it was 80 to 100%; in [9], < 50%.
As to `CC(C)SCc1c(F)c(F)c(COC(=O)C(c2cnc(C(C)(C)C)nc2)C(C)(C)C)c(F)c1F` (racemic) [Compound 174], the pest or weed control at 500 ppm in experiment [1] is < 50%. Moreover, the mortality at 500 ppm in [2] (2 days) was < 50%; in [3] (72 h, 3 days), < 50%; in [5], < 50%; in the experiment with Myzus persicae (aphids), 80 to 100%; in [6] it was 50 to 79%; in experiment [7] it was 80 to 100%. Moreover, the mortality at 500 ppm in experiment [10], in experiment [8] (2 days) and in [9] was < 50% each time.
`CC(C)(C)c1ncc(C(C(=O)OCc2ccc(F)c(Oc3ccccc3)c2)C(C)(C)C)cn1` (racemic) [Compound 25, 4-fluoro-3-phenoxybenzyl (RS)-2-[2-(1,1-dimethylethyl)pyrimidin-5-yl]-3,3-dimethylbutanoate]: in [1], the pest or weed control at 500 ppm was 80 to 100%. Also, the mortality at 500 ppm in experiment [2] (2 days) was 50 to 79%; in experiment [3] (72 h, 3 days) it was < 50%; in experiment [5] it was 80 to 100%; in the experiment on Myzus persicae (aphids), 80 to 100%; in [6], 80 to 100%; in experiment [7] it was 80 to 100%. The mortality at 500 ppm is < 50% in experiment [10], 80 to 100% in [8] (2 days) and 80 to 100% in experiment [9].
